# Reference: paper PMC10046961, “High-Throughput Screening Assay for Detecting Drug-Induced Changes in Synchronized Neuronal Oscillations and Potential Seizure Risk Based on Ca^2+ Fluorescence Measurements in Human Induced Pluripotent Stem Cell (hiPSC)-Derived Neuronal 2D and 3D Cultures” (Cells, 2023)
# Read-outs that look alike come from different tables or passages of the source. Marks after values point to notes of the source that are not given here.
# What was measured:
# [1] = test system: hiPSC-derived neurons co-cultured with human primary astrocytes in 2D; assay: Ca2+ transient oscillation assay (FDSS), 2D co-culture; assay type: cell-based; details: for effect on peak number / Ca2+ neuronal oscillations, in words: 2D format; for activation at 0.04 µM / activation at 0.11 µM / activation at 0.33 µM / activation at 1 µM / activation at 3.7 µM / activation at 11.11 µM / activation at 33.33 µM / activation at 100 µM: Homo sapiens, 1 h, 60 min
# Summary of the method: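 Cultures were 10,000 CW50065 hiPSC excitatory neurons plus 2500 primary human astrocytes per well. Recordings used Cal-520 dye in HBSS/HEPES/glucose at 37 °C, with a 470/540 nm read at 2 Hz. Oscillations were stabilized with 0.04% DMSO, read for 20 min, then read again 60 min after compound addition (final DMSO 0.1%).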
# [2] = test system: hiPSC-derived neurons co-cultured with human primary astrocytes in 3D; assay: Ca2+ transient oscillation assay (FDSS), 3D spheroids; assay type: cell-based; details: 60 min
# Summary of the method: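 Fura-2 fluorescence was read twice for 20 min each: a baseline 10 min after 0.04% DMSO, and again 60 min after compound addition at nominal final concentration. The 3D co-cultures (1:1 hiPSC neurons from a donor and human astrocytes, 8000 each) matured 5 weeks in BrainPhys medium after a 1-week differentiation.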
# [3] = ref PharmaPendium, cited from earlier work
# [4] = read-out: Area under the curve - 2D Mean
# [5] = read-out: Peak amplitude - 2D Mean
# [6] = read-out: Peak-to-peak interval - 2D Mean
# [7] = Table 1, peak plasma concentration in men, free therapeutic Cmax
# [8] = Table 2, highest plasma concentration in humans after the therapeutic dose
smiles,measurement,setting,value
CN1CCN(C2=Nc3cc(Cl)ccc3Nc3ccccc32)CC1 [Clozapine],"effect on peak number / Ca2+ neuronal oscillations, in words",[1],significantly increased peak number
same,activation at 0.04 µM,[1]; [4],28.5%
same,activation at 0.04 µM,[1]; read-out: Peak Number—2D Mean,15.3%
same,activation at 0.04 µM,[1]; [5],12.5%
same,activation at 0.04 µM,[1]; read-out: Peak width - 2D Mean,20.8%
same,activation at 0.04 µM,[1]; [6],1.2%
same,activation at 0.11 µM,[1]; [4],49%
same,activation at 0.11 µM,[1]; read-out: Peak Number—2D Mean,24.2%
same,activation at 0.11 µM,[1]; [5],16.7%
same,activation at 0.11 µM,[1]; read-out: Peak width - 2D Mean,35.5%
same,activation at 0.11 µM,[1]; [6],-15.5%
same,activation at 0.33 µM,[1]; [4],28.8%
same,activation at 0.33 µM,[1]; read-out: Peak Number—2D Mean,-15%
same,activation at 0.33 µM,[1]; [5],9.4%
same,activation at 0.33 µM,[1]; read-out: Peak width - 2D Mean,22.8%
same,activation at 0.33 µM,[1]; [6],82%
same,activation at 1 µM,[1]; [4],10.8%
same,activation at 1 µM,[1]; read-out: Peak Number—2D Mean,-8.3%
same,activation at 1 µM,[1]; [5],1%
same,activation at 1 µM,[1]; read-out: Peak width - 2D Mean,11%
same,activation at 1 µM,[1]; [6],2.7%
same,Area under the curve - 3D Mean,[2]; 0.04 µM,150.1 % change from baseline
same,Peak Number—3D Mean,[2]; 0.04 µM,11.1 % change from baseline
same,Peak amplitude - 3D Mean,[2]; 0.04 µM,133.6 % change from baseline
same,Peak width - 3D Mean,[2]; 0.04 µM,6.2 % change from baseline
same,Peak-to-peak interval - 3D Mean,[2]; 0.04 µM,4.5 % change from baseline
same,Area under the curve - 3D Mean,[2]; 0.11 µM,153.9 % change from baseline
same,Peak Number—3D Mean,[2]; 0.11 µM,−10.0 % change from baseline
same,Peak amplitude - 3D Mean,[2]; 0.11 µM,130.9 % change from baseline
same,Peak width - 3D Mean,[2]; 0.11 µM,8.6 % change from baseline
same,Peak-to-peak interval - 3D Mean,[2]; 0.11 µM,19.2 % change from baseline
same,Area under the curve - 3D Mean,[2]; 0.33 µM,163.3 % change from baseline
same,Peak Number—3D Mean,[2]; 0.33 µM,−2.8 % change from baseline
same,Peak amplitude - 3D Mean,[2]; 0.33 µM,129.8 % change from baseline
same,Peak width - 3D Mean,[2]; 0.33 µM,14.0 % change from baseline
same,Peak-to-peak interval - 3D Mean,[2]; 0.33 µM,5.6 % change from baseline
same,Area under the curve - 3D Mean,[2]; 1 µM,182.8 % change from baseline
same,Peak Number—3D Mean,[2]; 1 µM,−13.9 % change from baseline
same,Peak amplitude - 3D Mean,[2]; 1 µM,129.4 % change from baseline
same,Peak width - 3D Mean,[2]; 1 µM,22.6 % change from baseline
same,Peak-to-peak interval - 3D Mean,[2]; 1 µM,14.2 % change from baseline
same,Free Cmax,[3]; [7],0.3 µM
same,Free Cmax,[3]; [8],0.3 µM
NS(=O)(=O)c1cc2c(cc1Cl)NC(C1CC3C=CC1C3)NS2(=O)=O (centres unmarked) [Cyclothiazide],"effect on peak number / Ca2+ neuronal oscillations, in words",[1],significantly increased peak number
same,activation at 3.7 µM,[1]; [4],48%
same,activation at 3.7 µM,[1]; read-out: Peak Number—2D Mean,2.7%
same,activation at 3.7 µM,[1]; [5],12.3%
same,activation at 3.7 µM,[1]; read-out: Peak width - 2D Mean,50.8%
same,activation at 3.7 µM,[1]; [6],9.2%
same,activation at 11.11 µM,[1]; [4],18.7%
same,activation at 11.11 µM,[1]; read-out: Peak Number—2D Mean,178%
same,activation at 11.11 µM,[1]; [5],-0.5%
same,activation at 11.11 µM,[1]; read-out: Peak width - 2D Mean,24.5%
same,activation at 11.11 µM,[1]; [6],-53.3%
same,activation at 33.33 µM,[1]; [4],-9.3%
same,activation at 33.33 µM,[1]; read-out: Peak Number—2D Mean,-25.2%
same,activation at 33.33 µM,[1]; [5],-24%
same,activation at 33.33 µM,[1]; read-out: Peak width - 2D Mean,208%
same,activation at 33.33 µM,[1]; [6],0.3%
same,activation at 100 µM,[1]; [4],-53.8%
same,activation at 100 µM,[1]; read-out: Peak Number—2D Mean,-82%
same,activation at 100 µM,[1]; [5],-72.8%
same,activation at 100 µM,[1]; read-out: Peak width - 2D Mean,-17.3%
same,activation at 100 µM,[1]; [6],-70.3%
same,Area under the curve - 3D Mean,[2]; 3.7 µM,135.8 % change from baseline
same,Peak Number—3D Mean,[2]; 3.7 µM,0.0 % change from baseline
same,Peak amplitude - 3D Mean,[2]; 3.7 µM,126.0 % change from baseline
same,Peak width - 3D Mean,[2]; 3.7 µM,0.7 % change from baseline
same,Peak-to-peak interval - 3D Mean,[2]; 3.7 µM,6.7 % change from baseline
same,Area under the curve - 3D Mean,[2]; 11.11 µM,187.3 % change from baseline
same,Peak Number—3D Mean,[2]; 11.11 µM,21.5 % change from baseline
same,Peak amplitude - 3D Mean,[2]; 11.11 µM,139.0 % change from baseline
same,Peak width - 3D Mean,[2]; 11.11 µM,23.6 % change from baseline
same,Peak-to-peak interval - 3D Mean,[2]; 11.11 µM,−14.5 % change from baseline
same,Area under the curve - 3D Mean,[2]; 33.33 µM,245.1 % change from baseline
same,Peak Number—3D Mean,[2]; 33.33 µM,63.6 * % change from baseline
same,Peak amplitude - 3D Mean,[2]; 33.33 µM,113.7 % change from baseline
same,Peak width - 3D Mean,[2]; 33.33 µM,64.7 % change from baseline
same,Peak-to-peak interval - 3D Mean,[2]; 33.33 µM,−30.0 % change from baseline
same,Area under the curve - 3D Mean,[2]; 100 µM,204.6 % change from baseline
same,Peak Number—3D Mean,[2]; 100 µM,102.9 ** % change from baseline
same,Peak amplitude - 3D Mean,[2]; 100 µM,83.6 % change from baseline
same,Peak width - 3D Mean,[2]; 100 µM,80.0 % change from baseline
same,Peak-to-peak interval - 3D Mean,[2]; 100 µM,−49.3 % change from baseline
same,Free Cmax,[3]; [7],30 µM
same,Free Cmax,[3]; [8],30 µM
